According to patent US6596712B2, “Treatment of carcinomas using squalamine in combination with other anti-cancer agents or modalities” (Genaera Corporation, priority 1996, dated 2003):

Assays:
H460 = H460 lung tumor xenograft with carboplatin; format: in vivo, nude BALBc mice; conditions: carboplatin 60 mg/kg i.p. single dose, squalamine 20 mg/kg once daily for 5 days
Procedure: (§1) About 5×10^6 cells from each of two human lung tumor lines, H460 (a rapidly proliferating large cell carcinoma cell line, ATCC HTB-177) and Calu-6 (an anaplastic carcinoma, ATCC HTB-56), were inoculated subcutaneously in the right foreleg of nude BALBc mice. Once tumors were visible (3-5 days) with a mean volume of approximately 50-80 mm^3, mice were treated intraperitoneally with 60 mg/kg carboplatin (single dose) or 20 mg/kg/squalamine (once daily for 5 days) or a combination of carboplatin and squalamine. There were 8 mice per group. Tumor growth inhibition was scored by quantifying the size of tumors once control tumors reached a size of 1.0 gram and determining the ratio of mean treated tumor size to mean control tumor size (T/C). Tumor growth inhibition was then scored as 100% x [1-(T/C)]. A separate antitumor activity variable, tumor growth delay, was scored for the tumors by determining the length of time it required for the mean tumor size in a treatment group to reach a size of 500 mm^3 (B. A. Teicher et al., Anticancer Research 18, 2567-2574 (1998)). The tumor growth inhibition seen with carboplatin plus squalamine was greater than that seen with carboplatin or squalamine alone. The relative inactivity of squalamine as a single agent by this assay endpoint supports the idea that squalamine is synergistic with carboplatin in the inhibition of these two human lung tumor xenografts. Similarly, it was determined that squalamine enhanced the tumor growth delay caused by carboplatin by an enhancement factor of >2.3 (Table 7).

[1] = system: H460 human lung adenocarcinoma line; assay: Nude mouse xenograft model of lung cancer with cisplatin, H460; format: in vivo; conditions: started on day 4 or 5, daily i.p.
Text: Studies in a nude mouse xenograft model of lung cancer have been carried out using several human lung cancer lines which differ in their growth rate. […] The experimental lung cancer model design involves subcutaneous injection of 5×10^6 tumor cells followed by a single injection of the chemotherapeutic drug on day 3 or 4. […] Groups of mice receiving squalamine alone started receiving the aminosterol on the same day as aminosterol treatment in the combination chemotherapy groups. Tumor volumes were then determined at termination of the experiment and compared.

rabbit NHE2 = target: T1, rabbit NHE2 (Oryctolagus cuniculus, UniProt P50482); assay: NHE activity, rabbit NHE2; format: cell-based; conditions: similar tests
T1 construct: expressed in transfected cells
T1 sequence (P50482 whole entry): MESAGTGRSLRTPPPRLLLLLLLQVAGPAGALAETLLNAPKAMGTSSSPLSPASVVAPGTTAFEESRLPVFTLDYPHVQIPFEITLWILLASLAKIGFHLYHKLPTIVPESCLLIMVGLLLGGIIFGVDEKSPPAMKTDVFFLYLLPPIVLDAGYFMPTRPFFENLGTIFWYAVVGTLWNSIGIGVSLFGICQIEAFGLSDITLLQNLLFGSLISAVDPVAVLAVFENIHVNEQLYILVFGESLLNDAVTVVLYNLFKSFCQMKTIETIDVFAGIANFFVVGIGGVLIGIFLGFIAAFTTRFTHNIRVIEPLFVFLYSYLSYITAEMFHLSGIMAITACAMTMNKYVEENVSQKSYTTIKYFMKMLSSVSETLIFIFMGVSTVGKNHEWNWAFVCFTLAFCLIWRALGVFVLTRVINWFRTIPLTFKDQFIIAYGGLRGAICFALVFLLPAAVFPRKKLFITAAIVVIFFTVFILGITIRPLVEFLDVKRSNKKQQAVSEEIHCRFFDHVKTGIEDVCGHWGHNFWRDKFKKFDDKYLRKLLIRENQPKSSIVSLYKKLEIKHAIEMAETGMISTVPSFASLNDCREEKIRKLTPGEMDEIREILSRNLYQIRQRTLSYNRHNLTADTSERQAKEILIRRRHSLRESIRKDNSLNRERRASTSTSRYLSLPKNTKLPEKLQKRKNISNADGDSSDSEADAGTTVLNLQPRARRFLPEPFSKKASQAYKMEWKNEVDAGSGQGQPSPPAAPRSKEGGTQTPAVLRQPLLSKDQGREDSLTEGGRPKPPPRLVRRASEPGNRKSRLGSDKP

[2] = system: 9L gliosarcoma tumors (9L glioma); assay: 9L glioma flank study; format: in vivo, Fisher 344 rats; conditions: Day 25 or 26 after implantation, treatment from Day 5 per Table 4
Procedure: Four groups of rats (twenty total Fisher 344 rats, 200 g) were given s.q. transplants of 1 mm3 9L gliosarcoma tumors (9L glioma) on Day 0. The tumors were implanted in the rat flanks to avoid complications relating to adequate brain levels of squalamine. Randomization and treatment began on Day 5 according to the following scheme:
On Day 25 or 26 after tumor implantation, the tumor size was measured directly. The tumor size (i.e., its volume “V”) was estimated based on volumetric calculations determined from the measured length (“L”), width (“W”), and height (“H”) of the tumor (Vtumor spheroid˜0.5 ×L×W×H). The tumor volumes shown in Table 5 represent the mean tumor volumes for each treatment group for those animals that survived to the end of the experiment.

rabbit NHE3 = target: T2, rabbit NHE3 (Oryctolagus cuniculus, UniProt P26432); assay: NHE activity, rabbit NHE3; format: cell-based; conditions: for decrease of Vmax of rabbit NHE3: 1 hour pretreatment
T2 construct: expressed in transfected cells
T2 sequence (P26432 30-832): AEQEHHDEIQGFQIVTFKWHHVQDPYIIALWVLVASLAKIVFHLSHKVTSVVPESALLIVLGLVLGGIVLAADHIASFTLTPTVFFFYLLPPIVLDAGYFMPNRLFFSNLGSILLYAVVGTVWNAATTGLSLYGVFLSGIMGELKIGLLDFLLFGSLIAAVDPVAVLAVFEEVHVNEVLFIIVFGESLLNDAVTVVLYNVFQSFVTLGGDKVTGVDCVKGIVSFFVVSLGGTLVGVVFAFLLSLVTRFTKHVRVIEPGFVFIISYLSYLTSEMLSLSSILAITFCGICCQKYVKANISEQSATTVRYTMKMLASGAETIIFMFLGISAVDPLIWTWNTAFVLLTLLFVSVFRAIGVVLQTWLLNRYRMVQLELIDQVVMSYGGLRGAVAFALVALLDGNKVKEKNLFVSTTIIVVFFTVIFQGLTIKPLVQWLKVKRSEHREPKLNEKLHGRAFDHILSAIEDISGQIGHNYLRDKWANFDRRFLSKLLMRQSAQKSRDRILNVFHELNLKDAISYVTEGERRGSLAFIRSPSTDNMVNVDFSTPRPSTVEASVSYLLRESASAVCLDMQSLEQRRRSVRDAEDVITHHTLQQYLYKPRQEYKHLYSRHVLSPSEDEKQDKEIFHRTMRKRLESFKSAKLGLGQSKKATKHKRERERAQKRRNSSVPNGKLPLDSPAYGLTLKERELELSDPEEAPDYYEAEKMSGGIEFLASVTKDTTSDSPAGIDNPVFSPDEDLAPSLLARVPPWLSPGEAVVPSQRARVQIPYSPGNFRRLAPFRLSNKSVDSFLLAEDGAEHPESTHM

[3] = system: brush border membrane vesicle (BBMV) NHE; assay: Brush border membrane vesicle (BBMV) NHE inhibition; format: biochemical; conditions: tissue pretreated; 30 minutes exposure
Calu-6 = Calu-6 lung tumor xenograft with carboplatin; format: in vivo, nude BALBc mice; conditions: carboplatin 60 mg/kg i.p. single dose, squalamine 20 mg/kg once daily for 5 days
Procedure: as §1

[4] = system: tumor induced capillary formation in rabbit cornea; assay: Rabbit corneal micropocket assay (VX2 carcinoma stimulus); format: in vivo; conditions: for reduction of Angiogenesis Index (AI) vs untreated eyes: pellet 20% squalamine
Text: In determining whether a compound is antiangiogenic, the rabbit corneal micropocket assay is an accepted standard test. In this test, an incision is made in one rabbit cornea, and a stimulus is placed in the incision. The stimulus is used to induce blood vessel formation in the normally avascular corneal region. As one example, a solid tumor in a polymeric matrix can be placed in the cornea as the stimulus because the tumor will release a number of angiogenic growth factors to stimulate new capillary growth. The tumor-derived angiogenic growth factors stimulate the endothelial cells at the scleral junction in the eye to initiate blood vessel growth toward the stimulus. A second polymer pellet (e.g., an ethylene/vinyl acetate copolymer) is placed between the scleral junction and the stimulus. This polymer pellet is either empty (a negative control test pellet), or it contains a compound whose antiangiogenic characteristics are to be tested. The polymer pellet is used to provide a controlled release of the material to be studied. Because of the avascular cornea background in the rabbit cornea, one can visually assess the results qualitatively. In addition, the number of blood vessels can be counted and their length, etc., can be measured to provide a more quantitative evaluation of the results.
The VX2 rabbit carcinoma was implanted in 26 rabbit eyes, in the normally avascular corneal region, to act as an angiogenesis stimulus. […] The eyes were examined weekly using a slit lamp stereomicroscope for three weeks after tumor implantment, and the Angiogenesis Index (“AI”) was calculated (this calculation will be described in more detail below with reference to FIG. 8). […]
To provide a quantitative evaluation, the Angiogenesis Index (“AI”) of each eye was determined. […]
The vessel length (“Lvessel”) was then measured in each cornea. The vessel length is the length of the longest vessel measured from the cornea-scleral junction to the distal edge of the longest vessel growth. The Angiogenesis Index then is determined from these measurements by the following equation: [formula]

C4-2 cells = assay: C4-2 cell growth in vitro ([3H]-thymidine incorporation); format: cell-based, human
Procedure: The anti-proliferative effect of squalamine was evaluated in tissue culture by both crystal violet staining and [^3H]-thymidine incorporation, on the LNCaP/C4-2 human prostate cancer progression model. Developed by applicants' laboratory, this lineage-derived cell line recapitulates the progression of human neoplastic prostate disease from an androgen-dependent and minimally metastatic condition (LNCaP cells) to an androgen-independent (defined as being able to proliferate in castrate hosts) and highly aggressive state (C4-2 subline).

SMILES: CC(C)[C@@H](CC[C@@H](C)[C@H]1CC[C@H]2[C@@H]3[C@H](O)C[C@H]4C[C@@H](NCCCNCCCCN)CC[C@]4(C)[C@H]3CC[C@]12C)OS(=O)(=O)O [Squalamine, squalamine]
- Tumor Growth Inhibition (T/C) (H460): 6%
- tumor growth, monotherapy [1]: minimal effects on tumor growth
- effect on rabbit NHE2 (rabbit NHE2): not affected
- % Reduction (based on control volume) [2]: 81.7%
- Mean Tumor volume [2]: 3,347 mm^3
- % Reduction (based on control volume) ([2]; listed as squalamine): 81.7%
- time dependence of effect on Vmax (rabbit NHE3): maximum effect occurring at one hour exposure
- decrease of Vmax of rabbit NHE3 (rabbit NHE3; 1 μg squalamine/ml): 13%
- decrease of Vmax of rabbit NHE3 (rabbit NHE3; 5 μg squalamine/ml): 47%
- decrease of Vmax of rabbit NHE3 (rabbit NHE3; 7 μg squalamine/ml): 57%
- reversibility of effect on Vmax (rabbit NHE3; after removing the cells from the medium): fully reversible within three hours
- effect on rabbit NHE3 (rabbit NHE3; similar tests): inhibited
- inhibition of BBMV NHE [3]: 51%
- Tumor Growth Inhibition (T/C) (Calu-6): 8%
- reduction of Angiogenesis Index (AI) vs untreated eyes ([4]; Day 14): 37%
- reduction of Angiogenesis Index (AI) vs untreated eyes ([4]; Day 21): 43%
- vasculature of tumors in sectioned corneas ([4]; histology after the test): essentially no vasculature associated with those tumors
- growth of C4-2 cells, squalamine by itself (C4-2 cells; no exogenous VEGF): nominal effect
- C4-2 proliferation (C4-2 cells; with addition of exogenous VEGF, to a greater extent than LNCaP): inhibited
